From PubChem BioAssay (NCI)
Several values for one entry are separate records, joined by “and”; a condition that tells them apart may be missing. Equal entries are not always repeated.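 The compound was tested at five concentrations on cells cultured in 96-well plates, with a 48-hour exposure period. The concentration for 50% growth inhibition is given as GI50. TGI is the concentration that stops growth completely.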

Tests used:
Assay in all cases: growth of human tumour cells (NCI), 48 h
COLO 205 colon = system: COLO 205 colon
MALME-3M melanoma = system: MALME-3M melanoma
NCI-H23 lung = system: NCI-H23 lung
OVCAR-3 ovarian = system: OVCAR-3 ovarian
SF-295 CNS = system: SF-295 CNS
SN12C renal = system: SN12C renal
BT-549 breast = system: BT-549 breast
DU-145 prostate = system: DU-145 prostate
MCF7 breast = system: MCF7 breast
NCI/ADR-RES ovarian = system: NCI/ADR-RES ovarian

SMILES	TGI (COLO 205 colon) [µM]	TGI (MALME-3M melanoma)	TGI (NCI-H23 lung) [µM]	TGI (OVCAR-3 ovarian) [µM]	TGI (SF-295 CNS) [µM]	TGI (SN12C renal) [µM]	GI50 (BT-549 breast) [nM]	TGI (BT-549 breast)	GI50 (COLO 205 colon) [nM]	GI50 (DU-145 prostate)	TGI (DU-145 prostate) [µM]	GI50 (MALME-3M melanoma) [nM]	GI50 (MCF7 breast) [nM]	TGI (MCF7 breast) [µM]	GI50 (NCI/ADR-RES ovarian) [µM]	TGI (NCI/ADR-RES ovarian) [µM]	GI50 (OVCAR-3 ovarian) [µM]	GI50 (SF-295 CNS) [µM]	GI50 (SN12C renal) [µM]	GI50 (NCI-H23 lung) [µM]
CCC(C)COC(=O)c1ccc(N=Cc2ccc(C=Nc3ccc(C(=O)OCC(C)CC)cc3)cc2)cc1 (stereo unspecified)	> 100	> 100 µM	> 100	> 100	> 100	> 100	–	–	–	–	–	–	–	–	–	–	–	–	–	–
COc1ccc2c(c1)C(=O)c1c-2c(N2CCN(C(=O)CNCCNCCO)CC2)nc2ccccc12	4.19	5.97 µM	–	31.2	32.3	13.3	3670	12.6 µM	2170	6.17 µM	18.4	2550	1750	3.5	15	33.1	11.7	12.4	3.91	–
CCCc1nc(NC#N)nc(C(=O)Nc2ccccc2)c1CC	–	> 100 µM	> 100	> 100	> 100	> 100	–	–	–	–	–	–	–	–	–	–	–	–	–	–
COc1cc(NCc2ccc3nc(N)nc(N)c3c2C)cc(OC)c1OC (tested in a mixture with another compound)	45.1	30 µM and 49.4 µM	–	77.8	–	–	61.1	34.2 µM and 45.4 µM	–	0.172 µM and 0.025 µM	38.2	–	–	28.7	–	229	–	0.000372	0.000457	–
COc1ccc(NC(=O)/C(Cc2cc(=O)oc3cc(O)ccc23)=N\NC(C)(C)C)c(OC)c1	> 100	> 100 µM	> 100	> 100	> 100	> 100	–	–	–	–	–	–	–	–	–	–	–	–	–	–
CN1CCOC(c2ccccc2)O1 (stereo unspecified)	> 100	> 100 µM	> 100	> 100	> 100	> 100	–	–	–	–	–	–	–	–	–	–	–	–	–	–
O=C(Nc1nc(=S)c2c(ncn2CCOC(=O)c2ccccc2)[nH]1)c1ccccc1	> 100	> 100 µM	–	> 100	> 100	> 100	–	–	–	–	–	–	–	–	–	–	–	–	–	–
CCOC(=O)Nc1ccc(-c2nc(-c3cccc(OCCN4CCOCC4)c3)c(-c3ccnc(Br)c3)[nH]2)cc1	–	3.46 µM	5.6	> 100	–	> 100	2900	> 100 µM	–	4.05 µM	> 100	1600	1620	4.27	3.39	> 100	4.3	–	3.77	2.19
CC(=O)c1sc(Nc2nnc(-c3ccc(-c4nnc(Nc5nc(C)c(C(C)=O)s5)o4)cc3)o2)nc1C	> 100	> 100 µM	> 100	> 100	> 100	> 100	–	–	–	–	–	–	–	–	–	–	–	–	–	–
[Cl][Hg][c]1cc[c]([Hg][Cl])o1	3.26	3.37 µM	92.1	–	58.6	12.9	1990	8.67 µM	1650	3.81 µM	16.1	1680	529	8.84	8.25	> 100	–	19.4	2.25	7.91
CN(C)CC1CCCC/C1=N/OC(=O)c1ccc(Cl)cc1 (stereo unspecified)	> 100	> 100 µM	> 100	> 100	> 100	> 100	–	–	–	–	–	–	–	–	–	–	–	–	–	–
CC(C)Oc1ccc2cc(-c3nn(CC4CCNCC4)c4ncnc(N)c34)ccc2c1	13.2	–	25.8	25	14.2	24.8	9600	22 µM	3390	14.9 µM	28.4	–	5590	20.1	6.23	19.6	12.5	3.67	11.8	11.3
CCC[CH2][Sn]([Cl])([CH2]CCC)[CH2]CCC	0.278	0.265 µM	0.211	0.312	0.245	0.254	–	–	134	–	–	123	–	–	–	–	0.142	0.12	0.119	0.0552
Cc1cc(N(CCC#N)CCC#N)ccc1N=Nc1ccc(C(=O)O)cc1	> 100	> 100 µM	> 100	> 100	> 100	> 100	–	–	–	–	–	–	–	–	–	–	–	–	–	–
COc1ccc(/C=C2/N=C(c3ccccc3)N(c3c(C)n(C)n(-c4ccccc4)c3=O)C2=O)cc1OC	> 100	> 100 µM	> 100	> 100	> 100	> 100	–	–	> 100000	> 100 µM	> 100	> 100000	70500	> 100	> 100	> 100	> 100	> 100	> 100	> 100
CC1c2c(Cl)nc3ccccc3c2Oc2c1c(Cl)nc1ccccc21	> 100	> 100 µM	> 100	> 100	> 100	–	–	–	–	–	–	–	–	–	–	–	–	–	–	–
COC(=O)C(Cc1nc2ccc(Cl)cc2[nH]c1=O)/C(=N\N)C(=O)Nc1cc(C)c(Cl)cc1S(=O)(=O)O (stereo unspecified)	> 100	> 100 µM	> 100	> 100	> 100	> 100	–	–	–	–	–	–	–	–	–	–	–	–	–	–
CCOC(=O)C(=[N+]=[N-])[Si](C)(C)C	> 100	> 100 µM	> 100	> 100	> 100	> 100	–	–	–	–	–	–	–	–	–	–	–	–	–	–
C1CN2CCN3CCN4CCN1[P+]243	> 100	> 100 µM	> 100	> 100	> 100	> 100	–	–	–	–	–	–	–	–	–	–	–	–	–	–
CCOc1ccccc1NC(=O)C(=O)CC(=O)c1sc(Nc2nnc(-c3ccc(Cl)c(Cl)c3)o2)nc1C	> 100	> 100 µM	> 100	> 100	> 100	> 100	–	–	–	–	–	–	–	–	–	–	–	–	–	–
CCOc1ccc(NC(=O)C(=O)CC(=O)c2c(C)n([O-])c3ccccc3[n+]2=O)cc1	> 100	> 100 µM	> 100	> 100	> 100	> 100	–	–	–	–	–	–	–	–	–	–	–	–	–	–
COc1ccc(CC2NCCc3c2[nH]c2ccccc32)cc1 (stereo unspecified)	40.6	–	–	> 100	> 100	> 100	–	–	–	–	–	–	–	–	–	–	–	–	–	–
